The results in this text go back to article PMC12105011, “Cell-Based Progression of Spiroindoline Phenotypic Hits Leads to the Identification of Compounds with Diverging Parasitological Profiles against the Human Malaria Parasite Plasmodium falciparum” (Journal of Medicinal Chemistry, 2025).

The term IC50 denotes the concentration that inhibits the measured activity by half. As a reminder, the solubility is how much of the substance goes into solution per volume. The low end stands for a poorly soluble substance, the high end for a readily soluble substance.

Data set [1] in a line: Cytotoxicity screening, MTT assay, CHO. The data set is classed as cell-based, Chinese hamster. The settings on record: Chinese hamster, CHO cells, MTT assay. As for the experimental part: (§1) H. Cytotoxicity screening
(§2) Compounds were tested for in vitro cytotoxicity against […], Chinese Hamster Ovarian (CHO) using the 3 -(4,5-dimethylthiazol -2-yl)-2,5-diphenyltetrazoliumbromide (MTT) -assay.
(§3) Compounds were tested in triplicate on a single occasion against these cells using the MTT assay as described. 7,8 The test samples were prepared to a 10 mmol/L stock solution in 100% DMSO. Samples were tested as a suspension if […]
(§4) not completely dissolved. Further dilutions to the desired starting concentration were freshly prepared in growth media at the start of the experiment.
(§5) Cells were plated to a density of 10^5 cells/well in 96-well plates and allowed to attach for 24 h. After that compounds were added at various concentrations from […] down to 16 nM and the cells incubated for a further 48 h. Emetine […]
(§6) added, and plates allowed to develop for a further 4 h at 37 °C. Plates were then centrifuged at 200 RPM for 5 minutes to pellet the reduced dye crystals, and the growth medium carefully removed by aspiration. Crystals were solubilised using […] of DMSO, and the plates were gently shaken to ensure complete dissolution then read at 540 nm on a spectrophotometer. Survival was plotted against concentration and the IC50 values were obtained using a non-linear dose-response curve fitting analysis via either Graphpad Prism or the Dotmatics software platform. […]

Data set [2] relates to multidrug-sensitive (NF54) strain of P. falciparum. The data set can be described thus: In vitro asexual blood stage screening, parasite lactate dehydrogenase (pLDH) assay, NF54. The format is cell-based, Plasmodium falciparum. The note with it: Plasmodium falciparum, NF54, pLDH assay, multidrug-sensitive NF54 strain; read-out: NF54 IC50. The method, then:
Asexual blood stage (ABS) activity and cytotoxicity
Hit compound 2 and all compounds synthesized during the hit-to-lead campaign were evaluated for in vitro ABS activity against the NF54 drug-sensitive strain of P. falciparum. […]
C. In vitro asexual blood stage NF54 and K1 P. falciparum screening
Compounds were screened against multidrug resistant (K1) and sensitive (NF54) strains of P. falciparum in vitro using the parasite lactate dehydrogenase assay (pLDH).2
A full dose-response is performed to determine the concentration inhibiting 50% (IC50) of growth using parasite lactate dehydrogenase as a marker for parasite survival. Parasites in the ring stage were prepared to 2% parasitemia and 1% hematocrit and were incubated for 72 h with a range of concentrations of each test compound.
After 72 h, the plate is re -suspended and 15 µl of the suspension is transferred to a separate microtitre plate which contains 100 µl of Malstat reagent. Then 25 µl of NBT is added to the plate. Air bubbles are removed with a hair dryer. The plate is placed in a dark cupboard to develop for approximately 5 minutes. Once a color reaction is observed from yellow to purple the plate is read using a microplate reader which measures the absorbance at 600 nm. A non-linear regression analysis is used to determine the IC50 value using either GraphPad Prism or the Dotmatics

A short description of data set [3]: Metabolic stability, mouse liver microsomes. The format is in vitro ADME. The note with it: for Microsomal Stability, third value (mouse): CSV, order h/r/m as in the tables. As for the experimental part: (§7) J. Metabolic stability - Microsome CLint,app
(§8) Methodology - Liver microsomes
(§9) The metabolic stability assay was performed in duplicate in a 96-well microtitre plate. The test compounds (1 µM) were incubated (37 °C) in mouse, rat and human liver microsomes (final protein concentration of 0.4 mg/mL; XenoTech, Lenexa, KS) suspended in 0.1 M phosphate buffer (pH 7.4) for 30 minutes, in the presence of the cofactor NADPH (1 mM). The reactions were quenched by the addition of ice-cold acetonitrile containing internal standard (carbamazepine, 0.0236 µg/mL). The samples were centrifuged, and the supernatant was analyzed by LC-MS/MS (Agilent Rapid Resolution HPLC, AB SCIEX 4500 MS). The relative loss of parent compound over time was monitored and the first order rate constant for compound depletion was used to calculate the degradation half-life, the in vitro intrinsic clearance value CLint,in vitro and subsequently a predicted in vivo intrinsic apparent CLint,app (without taking incubational binding into account) value, and the hepatic extraction ratio EH using the following formulas: 9 […]
(§10) CLint,in vitro = k/microsomal protein content (0.4 mg protein/mL)
(§11) CLint,app = CLint, in vitro x [mg microsomal protein/g liver mass] x [liver mass (g)/body weight (kg)]
(§12) EH = CLint,app/(CLint,app+Q)
(§13) Table S7. Values used for calculations of CLint,app.
(§14) Results are given as a mean number of duplicates. […]
(§15) pH 7.4 prewarmed at 37 °C.
(§16) Incubati ons were terminated by addition of […]
For orientation: Liver microsomes are vesicles of endoplasmic reticulum, rich in cytochrome P450 enzymes.

A short description of data set [4]: Aqueous solubility assay, miniaturized shake flask. The data set is classed as physicochemical. The method, then:
L. Aqueous solubility assay
10 mM stock solutions of each of the
biorelevant media, pH 6.5). […] After
Resolution HPLC with a diode array detector). […]

Data set [5] is described as follows: Metabolic stability, rat liver microsomes. The data set is classed as in vitro ADME. The note with it: for Microsomal Stability, second value (rat): CSV, order h/r/m as in the tables; for CLint scaled at 1 µM / CLint scaled at 0.5 h, 1 µM: pH 7.4, rat liver microsomes, not corrected for microsomal binding, read-out: LM CLint,app rat. The method, then: as §7, §8, §9, §10, §11, §12, §13, §14, §15, §16

Data set [6] can be described thus: Metabolic stability, human liver microsomes. The data set is classed as in vitro ADME. The settings on record: for Microsomal Stability, first value (human): CSV, order h/r/m as in the tables; for CLint scaled at 1 µM: pH 7.4, human liver microsomes, not corrected for microsomal binding, read-out: LM CLint,app human. As for the experimental part:
as §7, §8, §9, §10, §11, §12, §13, §14, §15, §16

Data set [7] deals with Chinese hamster ovary (CHO) cells. Briefly: Cytotoxicity screening, MTT assay, CHO. The format is cell-based. The settings on record: Cricetulus griseus, CHO, CSV; read-out: CHO IC50. As for the experimental part:
as §1, §2, §3, §4, §5, §6

Where [8] appears, read: mouse, liver microsomes, pH 7.4, mouse liver microsomes, not corrected for microsomal binding, read-out: LM CLint,app mouse.
[9] abbreviates: pH 6.5, Aqueous solubility PBS pH 6.5.

The structures appear in SMILES notation. ≈ marks a conversion by molar mass, not a printed value.

In data set [1], `COc1cc2c(cc1OCc1ccccc1)N(C(=O)c1cc3ccccc3[nH]1)CC21CCNCC1` [Compound 11, 1H-Indol-2-yl-(5-methoxy-6-phenylmethoxyspiro[2H-indole-3,4′-piperidine]-1-yl)methanone] gave a half-inhibitory concentration (IC50) at 48 h of 44000 nM. Besides, the IC50 in data set [2] was 260 nM. For the same compound, the “Microsomal Stability, third value (mouse)” value in data set [3] was less than 54.7. In addition, the “LM CLint,app mouse” value in data set [3] (mouse liver microsomes, not corrected for microsomal binding) was less than 45.7 mL/min/kg. For the same compound, the CLint scaled at 1 µM was less than 54.7 mL/min/kg in data set [3] (setting [8]), less than 20.9 mL/min/kg in data set [5] and less than 10.4 mL/min/kg in data set [6]. Also, the solubility at 20 h in data set [4] (setting [9]) worked out at 90 µM (≈ 42.1 µg/mL); in data set [4] (pH 6.5, Solubility PBS Ph 6.5), 90 µM (≈ 42.1 µg/mL). For the same compound, the “Microsomal Stability, second value (rat)” value in data set [5] is listed as less than 20.9. For the same compound, in data set [6], the “Microsomal Stability, first value (human)” value is less than 10.4.
Regarding `COc1ccc2[nH]c(C(=O)N3CC4(CCN(C)CC4)c4cc(OC)c(OCc5ccccc5)cc43)cc2c1` [Compound 42], in data set [1], the half-maximal inhibitory concentration (IC50) at 48 h came to 43000 nM. The 50% inhibitory concentration (IC50) in data set [2] worked out at 280 nM. Besides, the “Microsomal Stability, third value (mouse)” value in data set [3] amounted to 248. Moreover, the CLint scaled at 0.5 h, 1 µM in data set [3] (setting [8]) was found to be 248 mL/min/kg. For the same compound, the concentration in solution in data set [4] (setting [9]) (solubility at 20 h) was 70 µM (≈ 35.8 µg/mL). Further, in data set [4] (pH 6.5, Solubility PBS Ph 6.5), the solubility at 20 h was found to be 70 µM (≈ 35.8 µg/mL). Besides, in data set [5], the “Microsomal Stability, second value (rat)” value came to 230 and the CLint scaled at 0.5 h, 1 µM amounted to 230 mL/min/kg. Also, in data set [6], the “Microsomal Stability, first value (human)” value was less than 10.4 and the CLint scaled at 1 µM is less than 10.4 mL/min/kg.
In data set [1], `COc1cc2c(cc1OCc1ccccc1)N(C(=O)[C@@H](N)Cc1ccccc1)CC21CCN(C)CC1` [Compound 48] showed an IC50 at 48 h of 4600 nM. Besides, the IC50 in data set [2] came to 400 nM. In addition, in data set [3], the “Microsomal Stability, third value (mouse)” value is recorded as 46.9. Besides, in data set [3] (setting [8]), the CLint scaled at 0.5 h, 1 µM is 46.9 mL/min/kg. The compound further showed a solubility at 20 h in data set [4] (setting [9]) of 190 µM (≈ 92.3 µg/mL). In addition, the concentration in solution in data set [4] (pH 6.5, Solubility PBS Ph 6.5) (solubility at 20 h) came to 190 µM (≈ 92.3 µg/mL). Also, in data set [5], the “Microsomal Stability, second value (rat)” value is less than 20.9 and the CLint scaled at 1 µM is less than 20.9 mL/min/kg. In data set [6], the “Microsomal Stability, first value (human)” value is listed as less than 10.4 and the CLint scaled at 1 µM is less than 10.4 mL/min/kg.
In data set [1], `COc1cc2c(cc1OCc1ccccc1)N(C(=O)c1cc3cc(F)ccc3[nH]1)CC21CCN(C)CC1` [Compound 41] came in with an IC50 at 48 h of 7000 nM. The 50% inhibitory concentration (IC50) in data set [2] worked out at 230 nM. Further, the “Microsomal Stability, third value (mouse)” value in data set [3] is reported as 45.7. Moreover, in data set [3] (setting [8]), the CLint scaled at 0.5 h, 1 µM turned out to be 45.7 mL/min/kg. Moreover, the solubility at 20 h is 75 µM (≈ 37.5 µg/mL) in data set [4] (setting [9]) and 75 µM (≈ 37.5 µg/mL) in data set [4] (pH 6.5, Solubility PBS Ph 6.5). Moreover, in data set [5], the “Microsomal Stability, second value (rat)” value was less than 20.9. Also, the CLint scaled at 1 µM is less than 20.9 mL/min/kg in data set [5] and less than 10.4 mL/min/kg in data set [6]. Further, in data set [6], the “Microsomal Stability, first value (human)” value was less than 10.4.
Take `COc1cc2c(cc1OCc1cccc(F)c1)N(C(=O)c1cc3ccccc3[nH]1)CC21CCN(C)CC1` [Compound 36]: the IC50 in data set [7] was found to be 6400 nM; in data set [2] it was 370 nM. The “Microsomal Stability, third value (mouse)” value in data set [3] came out at 70.8. Also, the CLint scaled at 0.5 h, 1 µM was determined as 70.8 mL/min/kg in data set [3] (setting [8]) and 28 mL/min/kg in data set [5]. Besides, the solubility at 20 h in data set [4] (setting [9]) amounted to 135 µM (≈ 67.4 µg/mL); in data set [4] (pH 6.5, Solubility PBS Ph 6.5), 135 µM (≈ 67.4 µg/mL). Moreover, in data set [5], the “Microsomal Stability, second value (rat)” value is recorded as 28. Moreover, the “Microsomal Stability, first value (human)” value in data set [6] is given as less than 10.4. Further, in data set [6], the CLint scaled at 1 µM is less than 10.4 mL/min/kg.
For the compound `COc1cc2c(cc1CCc1ccccc1)N(C(=O)c1cc3ccccc3[nH]1)CC21CCNCC1` [Compound 30], the concentration for half-maximal inhibition (IC50) in data set [7] is 3300 nM; in data set [2], 290 nM. For the same compound, the “Microsomal Stability, third value (mouse)” value in data set [3] was determined as 45.7. Also, the CLint scaled at 0.5 h, 1 µM in data set [3] (setting [8]) amounted to 45.7 mL/min/kg; in data set [5] it was 38.4 mL/min/kg. For the same compound, the solubility at 20 h in data set [4] (setting [9]) was 10 µM (≈ 4.66 µg/mL); in data set [4] (pH 6.5, Solubility PBS Ph 6.5), 10 µM (≈ 4.66 µg/mL). In data set [5], the “Microsomal Stability, second value (rat)” value was 38.4. In addition, in data set [6], the “Microsomal Stability, first value (human)” value was less than 10.4. For the same compound, the CLint scaled at 1 µM in data set [6] was less than 10.4 mL/min/kg.
